“Also recorded” adds a separate entry of the source. Where two headings read alike, the source gives them in different places.
Key:
[1] = system: HLA-A2, -A24, -B7, -DR2, -DR3 and -DR4 transgenic mice; format: cell-based; set-up: key to HLA allele this work (HLA restriction by ELISpot): —represents no positive ELISpot response
[2] = system: splenocytes of HLA-DR2 (DRB1*1501) transgenic mice; format: cell-based; set-up: key to DR2: average IFN-γ spots forming cells per million splenocytes: — represents no positive ELISpot response
[3] = system: splenocytes of HLA-A24 (A*2402) transgenic mice; format: cell-based; set-up: key to A24: average IFN-γ spots forming cells per million splenocytes: — represents no positive ELISpot response
[4] = system: HLA alleles; settings: epitopes extracted from the IEDB, humans infected with influenza A, cited from earlier work
[5] = system: splenocytes of HLA-B7 (B*0702) transgenic mice; format: cell-based; set-up: key to B7: average IFN-γ spots forming cells per million splenocytes: — represents no positive ELISpot response
[6] = system: splenocytes of HLA-DR4 (DRB1*0401) transgenic mice; format: cell-based; set-up: key: — represents no positive ELISpot response
[7] = system: splenocytes of HLA-DR3 (DRB1*0301) transgenic mice; format: cell-based; set-up: key to DR3: average IFN-γ spots forming cells per million splenocytes: — represents no positive ELISpot response
[8] = molecular target: HLA-DR4 (HLA-DRA*0101 and -DRB1*0401), as expressed in HLA-DR4 transgenic mice (human); assay: cell-based or functional assay
[9] = molecular target: HLA-DR3 (HLA-DRA*0101 and -DRB1*0301), as expressed in HLA-DR3 transgenic mice (human); assay: cell-based or functional assay

| Substance | HLA allele this work (HLA restriction by ELISpot) [1] | DR2: average IFN-γ spots forming cells per million splenocytes [2] | A24: average IFN-γ spots forming cells per million splenocytes [3] | B7: average IFN-γ spots forming cells per million splenocytes [5] | DR4: average IFN-γ spots forming cells per million splenocytes [6] | DR3: average IFN-γ spots forming cells per million splenocytes [7] | other results |
| --- | --- | --- | --- | --- | --- | --- | --- |
| AGALASCMGLIYNRMGA | — |  |  |  |  |  |  |
| ERRNKYLEEHPSAGKDP | DR4 | — | — | — | 121 ± 1(0.1) IFN-γ spots forming cells per million splenocytes | — | Published HLA alleles (reported human T cell epitopes) [4]: DR1, DRB1*0101 |
| FVANFSMELPSFGVSGV | — |  |  |  |  |  |  |
| GKGYMFESKSMKLRTQI | DR2 | 52 ± 2(1) IFN-γ spots forming cells per million splenocytes | — | — | — | — | DR2: lowest concentration of peptide giving positive ELISpot response in peptide titration [2]: 52 ± 2(1) μg/ml |
| GYTMDTVNRTHQYSERG | DR4 | — | — | — | 125 ± 11(0.1) IFN-γ spots forming cells per million splenocytes | — |  |
| HENRMVLASTTAKAMEQ | DR4 | — | — | — | 165 ± 1(0.1) IFN-γ spots forming cells per million splenocytes | — | Published HLA alleles (reported human T cell epitopes) [4]: A3, A11, DRB1*0701 |
| KTGGPIYKRVDGKWVRE | DR3 |  |  |  |  |  |  |
| KWMMAMKYPITADKRIT | DR4 | — | — | — | 161 ± 18(0.1) IFN-γ spots forming cells per million splenocytes | — |  |
| LEVCFMYSDFHFINEQG | DR2 | 64 ± 11(1) IFN-γ spots forming cells per million splenocytes | — | — | — | — | DR2: lowest concentration of peptide giving positive ELISpot response in peptide titration [2]: 64 ± 11(1) μg/ml |
| LTIERMVLSAFDERRNK | — |  |  |  |  |  |  |
| MDVNPTLLFLKVPAQNA | — |  |  |  |  |  |  |
| MSLLTEVETYVLSIVPS | — |  |  |  |  |  |  |
| NKMARLGKGYMFESKSM | — |  |  |  |  |  |  |
| NQPEWFRNILSIAPIMF |  | — | — | 60 ± 8 IFN-γ spots forming cells per million splenocytes | — | — | lowest peptide concentration giving positive IFN-γ ELISpot response (apparent functional avidity) [1]: solely at the highest peptide concentration; B7: lowest concentration of peptide giving positive ELISpot response in peptide titration [5]: (10) μg/ml |
| NTYQWIIRNWETVKIQW | both HLA class I and II alleles | 96 ± 9(0.1) IFN-γ spots forming cells per million splenocytes | 322 ± 44 IFN-γ spots forming cells per million splenocytes | — | — | — | DR2: lowest concentration of peptide giving positive ELISpot response in peptide titration [2]: 96 ± 9(0.1) μg/ml; A24: lowest concentration of peptide giving positive ELISpot response in peptide titration [3]: (0.1) μg/ml |
| PB1 554-570 peptide of influenza virus A/New York/348/2003 (H1N1) |  |  |  |  |  |  | IFN-γ ELISpot at 10 µg/ml peptide, splenocytes of immunized HLA transgenic mice [8]: 76; lowest concentration of peptide giving positive ELISpot response [8]: 0.1 µg/mL; IFN-γ ELISpot at 10 µg/ml peptide, splenocytes of immunized HLA transgenic mice [9]: 166; lowest concentration of peptide giving positive ELISpot response [9]: 0.1 µg/mL |
| PB1 650-666 peptide of influenza virus A/New York/348/2003 (H1N1) |  |  |  |  |  |  | IFN-γ ELISpot at 10 µg/ml peptide, splenocytes of immunized HLA transgenic mice [8]: 41; lowest concentration of peptide giving positive ELISpot response [8]: 0.1 µg/mL; IFN-γ ELISpot at 10 µg/ml peptide, splenocytes of immunized HLA transgenic mice [9]: 142; lowest concentration of peptide giving positive ELISpot response [9]: 0.1 µg/mL |
| PB2 256-272 peptide of influenza virus A/New York/348/2003 (H1N1) |  |  |  |  |  |  | IFN-γ ELISpot at 10 µg/ml peptide, splenocytes of immunized HLA transgenic mice [9]: 169; lowest concentration of peptide giving positive ELISpot response [9]: 0.1 µg/mL |
| PB2 434-450 peptide of influenza virus A/New York/348/2003 (H1N1) |  |  |  |  |  |  | IFN-γ ELISpot at 10 µg/ml peptide, splenocytes of immunized HLA transgenic mice [9]: 444; lowest concentration of peptide giving positive ELISpot response [9]: 0.1 µg/mL |
| PB2 464-480 peptide of influenza virus A/New York/348/2003 (H1N1) |  |  |  |  |  |  | IFN-γ ELISpot at 10 µg/ml peptide, splenocytes of immunized HLA transgenic mice [9]: 324; lowest concentration of peptide giving positive ELISpot response [9]: 0.1 µg/mL |
| RCHRGDTQIQTRRSFEI | DR2 | 194 ± 47(0.1) IFN-γ spots forming cells per million splenocytes | — | — | — | — | DR2: lowest concentration of peptide giving positive ELISpot response in peptide titration [2]: 194 ± 47(0.1) μg/ml |
| RGILEDEQMYQRCCNLF | both HLA class I and II alleles | — | 78 ± 4 IFN-γ spots forming cells per million splenocytes | — | — | 181 ± 10(0.1) IFN-γ spots forming cells per million splenocytes | A24: lowest concentration of peptide giving positive ELISpot response in peptide titration [3]: (0.1) μg/ml; DR3: lowest concentration of peptide giving positive ELISpot response in peptide titration [7]: 181 ± 10(0.1) μg/ml |
| RMVLASTTAK [reference compound] |  |  |  |  |  |  | Published HLA alleles (reported human T cell epitopes) [4]: HLA-A3 and -A11 |
| SAGQISTQPTFSVQRNL | DR2 | 207 ± 3(0.1) IFN-γ spots forming cells per million splenocytes | — | — | — | — | DR2: lowest concentration of peptide giving positive ELISpot response in peptide titration [2]: 207 ± 3(0.1) μg/ml; Published HLA alleles (reported human T cell epitopes) ([4]; listed as NP 402-418): DRB1*0101,; also recorded: DRB1*0404 |
| TNPLIRHENRMVLASTT | DR2, DR3 | 56 ± 5(0.1) IFN-γ spots forming cells per million splenocytes | — | — | — | 120 ± 4(0.1) IFN-γ spots forming cells per million splenocytes | DR2: lowest concentration of peptide giving positive ELISpot response in peptide titration [2]: 56 ± 5(0.1) μg/ml; Published HLA alleles (reported human T cell epitopes) ([4]; listed as M1 169-185): B39, DR2, DRB1*0103,; also recorded: DRB1*1101,; also recorded: DRB1*0701, DRB5*0101; DR3: lowest concentration of peptide giving positive ELISpot response in peptide titration [7]: 120 ± 4(0.1) μg/ml |
| TQIQTRRSFEIKKLWDQ | — |  |  |  |  |  |  |
| TQPTFSVQRNLPFDKTT |  | 110 ± 14(1) IFN-γ spots forming cells per million splenocytes | — | — | — | 41 ± 2(10) IFN-γ spots forming cells per million splenocytes | DR2: lowest concentration of peptide giving positive ELISpot response in peptide titration [2]: 110 ± 14(1) μg/ml; lowest peptide concentration giving positive IFN-γ ELISpot response (apparent functional avidity) [1]: solely at the highest peptide concentration; DR3: lowest concentration of peptide giving positive ELISpot response in peptide titration [7]: 41 ± 2(10) μg/ml |
| VLSAFDERRNKYLEEHP | — |  |  |  |  |  | Published HLA alleles (reported human T cell epitopes) [4]: DRB1*0101 |
| VLYDKEEIRRIWRQANN | DR3 | — | — | — | — | 501 ± 42(0.1) IFN-γ spots forming cells per million splenocytes | Published HLA alleles (reported human T cell epitopes) [4]: DRB1*1101; DR3: lowest concentration of peptide giving positive ELISpot response in peptide titration [7]: 501 ± 42(0.1) μg/ml |

Reference: US20120294879A1, “CONSENSUS SEQUENCE FOR INFLUENZA A VIRUS” (priority 2009, published 2012)
